“And” between values parts separate entries of the source, which are not always exact repeats. Identical values can stand only once.
How the values were obtained:
[1] = biological target: T1, Bile salt-activated lipase (Bos taurus) (UniProt P30122)
T1 sequence (whole entry): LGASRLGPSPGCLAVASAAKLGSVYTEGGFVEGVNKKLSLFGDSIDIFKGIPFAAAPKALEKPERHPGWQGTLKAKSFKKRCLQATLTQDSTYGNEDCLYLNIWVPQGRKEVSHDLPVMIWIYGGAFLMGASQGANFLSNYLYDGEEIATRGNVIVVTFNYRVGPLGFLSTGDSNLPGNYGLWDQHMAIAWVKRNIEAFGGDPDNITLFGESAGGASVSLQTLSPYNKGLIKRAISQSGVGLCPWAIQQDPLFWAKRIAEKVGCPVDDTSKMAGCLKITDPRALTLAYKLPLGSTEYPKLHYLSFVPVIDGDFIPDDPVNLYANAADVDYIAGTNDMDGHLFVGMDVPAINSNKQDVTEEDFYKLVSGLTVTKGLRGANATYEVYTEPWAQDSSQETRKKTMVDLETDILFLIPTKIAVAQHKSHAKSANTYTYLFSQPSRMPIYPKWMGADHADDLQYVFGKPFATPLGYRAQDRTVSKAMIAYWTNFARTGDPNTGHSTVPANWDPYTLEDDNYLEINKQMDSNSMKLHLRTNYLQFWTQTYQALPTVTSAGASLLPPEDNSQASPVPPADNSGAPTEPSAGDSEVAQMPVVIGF
Description: Carbamylation constant (k2) for the Pancreatic cholesterol esterase-catalyzed hydrolysis of 4-nitrophenyl butyrate

[2] = biological target: T2, Bile salt-activated lipase (Bos taurus, UniProt P30122); experiment: Dissociation constant (KI) for the Pancreatic cholesterol esterase-catalyzed hydrolysis of 4-nitrophenyl butyrate
T2 sequence (P30122 whole entry): T1 sequence (whole entry)

[3] = biological target: T2, Bile salt-activated lipase; experiment: Bimolecular rate constant (ki) for the Pancreatic cholesterol esterase-catalyzed hydrolysis of 4-nitrophenyl butyrate

SMILES | k2 [1] | Ki [2] | Bimolecular rate constant (ki) [3]
CCCCNC(=O)Oc1ccc2ccccc2c1-c1c(OC(=O)CCC)ccc2ccccc12 | 0.0008 10e3 s-1 and 0.0006 10e3 s-1 (2×) | 20 µM and 9 µM and 10 µM | 40 10e2 M-1 s-1 and 80 10e2 M-1 s-1 and 60 10e2 M-1 s-1
CCCCNC(=O)Oc1ccc2ccccc2c1-c1c(OC(=O)NCCCC)ccc2ccccc12 | 0.00095 10e3 s-1 and 0.0016 10e3 s-1 and 0.0012 10e3 s-1 | – | –
CCCCNC(=O)Oc1ccc2ccccc2c1-c1c(O)ccc2ccccc12 | 0.01 10e3 s-1 and 0.007 10e3 s-1 and 0.006 10e3 s-1 | 800 nM (2×) and 1.3 µM | 12000 10e2 M-1 s-1 and 10000 10e2 M-1 s-1 and 5000 10e2 M-1 s-1

Source: ChEMBL document CHEMBL1128903, “Atropisomeric carbamoyl type inhibitors of pancreatic cholesterol esterase” (Bioorg Med Chem Lett, 1996)
